Experimental data from patent US8802734B2, “Method of treating or preventing pain” (Novaremed Limited, priority 2009, dated 2014).

Tests used:
Balb/c mice [1] = test: Hot-Plate Test (antinociceptive effect), sub-chronic oral administration; assay type: in vivo; settings: po daily for 16 days, 0.1 and 5 mg/Kg, hot plate on days 1, 8 and 15
Excerpt: The objective of the study was to assess antinociceptive activity of tested items in the hot plate tests in mice, when administered sub-chronically. Measuring paw licking or jumping response time elapses following placement on heated surface (hot plate) was used to determine potential antinociceptive effect in mice.
A total of 42 Balb/c mice (12 weeks old) were utilized. The mice were approximately 25 g males at study initiation. The minimum and maximum weights of the group were within a range of ±10% of group mean weight.
Compounds 2 and 3 were tested and compared with Diclofenac® (Perigo). DMSO solutions were used. Six groups of mice (each having n=7 or n=8 mice) were tested, the last group receiving Diclofenac®.
All groups received the drugs daily po for 16 days. Hot plate experiments were performed on days; 1, 8 and 15.
The hot plate is maintained thermostatically at a temperature of 52° C. One hour before the administration of the drugs, mice are tested in the hot plate. At time 0 the mice are administered with the test compound and the response to the hot plate is measured again at different times: 60, 120, 180, 240, 300 and 360 min.
Results are expressed as: Delta from maximum response [baseline vs. maximum response]; Absolute measures over time; and Accumulated time.

Balb/c mice [2] = test: Formalin test; assay type: in vivo; settings: i.p. 0.2, 1, 2.5 mg/kg, formalin 1% intraplantar 3 h or 4 h after the treatment, FIGS. 12a-12e
Protocol: Formalin test. The method used was similar to that described by Hunscaar and Hole (1987) “The formalin test in mice: dissociation between inflammatory and non-inflammatory pain,” Pain 30, pp. 103-104.
Five animals are used in each group and two to three hours after oral administration of the conjugates, 40 μl or 20 μl (rats or mice, respectively) of a 1% formalin (in 0.9% saline) solution is injected subcutaneously into the dorsal surface hind paw. The formalin induced typical flinching behaviour of the injected paw which was counted. The animals were returned to a glass chamber and the total time spent by the animal licking or biting the injected paw was measured. Formalin induced pain behaviour is biphasic. The duration of paw licking was determined during the following two time periods: 0-5 min (first-neurogenic phase) and 20-30 min (second-inflammatory phase) after formalin injection.
Part a. Male mice (Balb/c mice, 27 weeks old, not naïve), were divided in 4 groups (5 mice per group) and treated (0 min, i.p.) with the following formulations, respectively: […]
Part b. Male mice (Balb/c mice, 27 weeks old, not naïve), were divided in 4 groups (5 mice in groups) and treated (0 min, i.p.) with the following formulations, respectively: […]

Q: `O=C(CCc1ccccc1)NC(COCCO)Cc1ccc(O)cc1` (stereo not drawn) [Compound 3] was tested. Which “effectiveness as pain relievers (hot plate test)” value (Balb/c mice [1]) did it give?
A: effective as pain relievers

Q: `CC(O)COCC(Cc1ccc(O)cc1)NC(=O)CCc1ccccc1` (stereo not drawn) [Compound 2] was tested. Which “effectiveness as pain relievers (hot plate test)” value (Balb/c mice [1]) did it give?
A: effective as pain relievers

Q: What about the “anti-inflammatory properties (formalin test)” value (Balb/c mice [2]) of the same compound?
A: confirm the anti-inflammatory properties
